Like-named read-outs stand apart in the source and are kept apart here.

Broadly, the melting point is the temperature of the solid-liquid transition.

Data set [1] concerns DYRK1A. The settings on record: reported, cited from earlier work.
The next data set deals with Casein kinase 1 (CK1δ/ε). Kind of data set: CK1δ/ε kinase assay. Particulars: 15 μM ATP, read-out: IC50 CK1. It counts as biochemical, porcine. How it is done:
(§1) The twenty-two (5Z) 5-arylidene-2-thioxo-1,3-thiazolidin-4-ones 3a–v and the twenty-four (5Z) 2-amino-5-arylidene-1,3-thiazolidin-4(5H)-ones 5a–x were evaluated against four different and representative in vitro kinase assays DYRK1A (dual specificity tyrosine phosphorylation regulated kinase), CK1 δ/e (caseine kinase 1), CDK5/p25 (cyclin dependant kinase), and GSK3 α/β (glycogen synthase kinase 3) to evaluate their inhibition potency. […] All the compounds were initially tested at a 10 μM concentration.
(§2) After 30-min incubation at 30 °C, the reaction was stopped by harvesting, using a FilterMate harvester (Packard), onto P81 phospho-cellulose papers (GE Healthcare, Chicago, IL, USA) which were washed in 1% phosphoric acid. Scintillation fluid was added and the radioactivity measured in a Packard counter. Blank values were subtracted and activities calculated as pmoles of phosphate incorporated for the 30-min incubation. The activities were expressed in % of the maximal activity, i.e., in the absence of inhibitors. Controls were performed with appropriate dilutions of DMSO.
Casein kinase 1 (CK1δ/ε) (porcine brain, native) was assayed with 0.67 µg of CKS peptide ([…]pSAYSITA), a CK1 specific substrate obtained from Millegen (Labege, France).

Data set [2] concerns the target T1, DYRK1A (Rattus norvegicus, UniProt Q63470).
T1 construct: GST; made in house; host or cells: Escherichia coli
Put plainly: DYRK1A kinase assay. The data set is classed as biochemical. Particulars: 15 μM ATP. The protocol:
as §1
After 30-min incubation at 30 °C, the reaction was stopped by harvesting, using a FilterMate harvester (Packard), onto P81 phospho-cellulose papers (GE Healthcare, Chicago, IL, USA) which were washed in 1% phosphoric acid. Scintillation fluid was added and the radioactivity measured in a Packard counter. Blank values were subtracted and activities calculated as pmoles of phosphate incorporated for the 30-min incubation. The activities were expressed in % of the maximal activity, i.e., in the absence of inhibitors. Controls were performed with appropriate dilutions of DMSO. […]

For the next data set, the target named is GSK-3α/β. Kind of data set: GSK-3α/β kinase assay. The data set is classed as biochemical, porcine. Particulars: 15 μM ATP, read-out: IC50 GSK3α/β. The protocol: as §1, §2
GSK-3α/β (porcine brain, native) was assayed, as described for CDK5/p25 but in Buffer A and using a GSK-3 specific substrate (GS-1: […]pEDEEE) (pS stands for phosphorylated serine). GS-1 was synthesized by Millegen (Labege, France).

In another data set the target is T2, CDK5/p25 (Homo sapiens, UniProt Q00535).
T2 construct: made in house
Kind of data set: CDK5/p25 kinase assay. It counts as biochemical. Particulars: 15 μM ATP. The protocol:
as §1, §2
CDK5/p25 (human, recombinant) was prepared as previously described. […] ATP (3000 Ci/mmol; 10 mCi/mL) in a final volume of 30 μL. After 30-min incubation at 30 °C, 25 μL aliquots of supernatant were spotted onto 2.5 × 3 cm pieces of Whatman P81 phospho-cellulose paper, and, 20 s later, the filters were washed five times (for at least 5 min each time) in a solution of 10 mL phosphoric acid/litter of water. The wet filters were counted in the presence of 1 mL ACS (Amersham, UK) scintillation fluid.

T2 sequence (Q00535 whole entry): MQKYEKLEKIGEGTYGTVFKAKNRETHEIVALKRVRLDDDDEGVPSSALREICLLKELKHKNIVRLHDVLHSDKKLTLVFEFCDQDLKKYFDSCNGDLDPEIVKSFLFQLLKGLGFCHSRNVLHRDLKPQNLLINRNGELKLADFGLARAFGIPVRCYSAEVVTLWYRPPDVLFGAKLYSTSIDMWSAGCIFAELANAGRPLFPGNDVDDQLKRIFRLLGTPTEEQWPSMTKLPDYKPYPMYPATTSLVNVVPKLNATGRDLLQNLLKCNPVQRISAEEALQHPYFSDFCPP
T2 sequence (Q15078 99-307 partner limits assumed): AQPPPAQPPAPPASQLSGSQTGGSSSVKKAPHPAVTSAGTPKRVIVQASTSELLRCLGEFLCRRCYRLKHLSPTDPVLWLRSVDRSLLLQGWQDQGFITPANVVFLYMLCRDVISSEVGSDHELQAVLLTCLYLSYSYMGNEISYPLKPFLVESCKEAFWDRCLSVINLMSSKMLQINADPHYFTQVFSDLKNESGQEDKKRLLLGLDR

2-(pyridin-3-yl)-1H-indol-6-ol: the IC50 in the data set with DYRK1A [1] was 0.06 µM.
`O=C1NC(=S)S/C1=C\c1cc(Br)c2c(c1)OCO2` [Compound 3i, (5Z)-5-[(7-Bromo-1,3-benzodioxol-5-yl)methylene]-2-thioxo-1,3-thiazolidin-4-one] came in with a melting point of more than 260 °C. The IC50 at Casein kinase 1 (CK1δ/ε) (Table 4) is more than 10 µM. The compound also yielded an IC50 on DYRK1A [2] (Table 4) of 0.7 µM. Moreover, the IC50 on GSK-3α/β (Table 4) is more than 10 µM. This compound returned an IC50 against CDK5/p25 (Table 4) of more than 10 µM.
The compound `O=C1NC(=S)S/C1=C\c1ccc(O)c(O)c1` [Compound 3j, (5Z)-5-(3,4-Dihydroxybenzylidene)-2-thioxo-1,3-thiazolidin-4-one] had a melting point of 210 to 212 °C. Moreover, on Casein kinase 1 (CK1δ/ε) (Table 4), the IC50 is more than 10 µM. Besides, at DYRK1A [2] (Table 4), the IC50 was more than 10 µM. Also, on GSK-3α/β (Table 4), the IC50 is more than 10 µM. The IC50 against CDK5/p25 (Table 4) was more than 10 µM.
In turn, `O=C1NC(=S)S/C1=C\c1cc(O)cc(O)c1` [Compound 3k, (5Z)-5-(3,5-Dihydroxybenzylidene)-2-thioxo-1,3-thiazolidin-4-one] returned a melting point of 230 to 232 °C. On Casein kinase 1 (CK1δ/ε) (Table 4), the IC50 is more than 10 µM. The compound further yielded an IC50 against DYRK1A [2] (Table 4) of more than 10 µM. Besides, at GSK-3α/β (Table 4), the IC50 is more than 10 µM. On CDK5/p25 (Table 4), this compound gave an IC50 of more than 10 µM.
Take `O=C1NC(=S)S/C1=C\c1cc2ccccc2o1` [Compound 3l, (5Z)-5-(1-Benzofuran-2-ylmethylene)-2-thioxo-1,3-thiazolidin-4-one]: the melting point lay in the range of 246 to 250 °C. The IC50 at Casein kinase 1 (CK1δ/ε) (Table 4) is more than 10 µM. Further, on DYRK1A [2] (Table 4), the IC50 turned out to be 15 µM. The compound also had an IC50 against CDK5/p25 (Table 4) of more than 10 µM.
For `O=C1N=C(N2CCOCC2)S/C1=C\c1ccc2c(c1)CCO2` [Compound 5m, (5Z)-5-(2,3-Dihydro-benzofuran-5-ylmethylene)-2-(morpholin-4-yl)-1,3-thiazol-4(5H)-one], the IC50 was more than 10 µM at Casein kinase 1 (CK1δ/ε) (Table 5), 0.6 µM against DYRK1A [2] (Table 5), not below 10 µM at GSK-3α/β (Table 5) and more than 10 µM against CDK5/p25 (Table 5).
Take `O=C1N=C(N2CCSCC2)S/C1=C\c1ccc2c(c1)CCO2` [Compound 5n, (5Z)-5-(2,3-Dihydro-benzofuran-5-ylmethylene)-2-(thiomorpholin-4-yl)-1,3-thiazol-4(5H)-one]: the IC50 at Casein kinase 1 (CK1δ/ε) (Table 5) is more than 10 µM; against DYRK1A [2] (Table 5), 0.07 µM; on GSK-3α/β (Table 5), 5.3 µM; against CDK5/p25 (Table 5), more than 10 µM.
In the case of `O=C1N=C(N2CCCCC2)S/C1=C\c1ccc2c(c1)CCO2` [Compound 5o, (5Z)-5-(2,3-Dihydro-benzofuran-5-ylmethylene)-2-(piperidin-1-yl)-1,3-thiazol-4(5H)-one], the IC50 at Casein kinase 1 (CK1δ/ε) (Table 5) is not below 10 µM; on DYRK1A [2] (Table 5), 0.09 µM; at GSK-3α/β (Table 5), 4.7 µM; on CDK5/p25 (Table 5) it was more than 10 µM.
As for `O=C1N=C(N2CCCCC2)S/C1=C\c1ccc2c(c1)OCCO2` [Compound 5p, (5Z)-5-(2,3-Dihydro-1,4-benzodioxin-6-ylmethylene)-2-(piperidin-1-yl)-1,3-thiazol-4(5H)-one], the IC50 on Casein kinase 1 (CK1δ/ε) (Table 5) is not below 10 µM; against DYRK1A [2] (Table 5), 0.94 µM; at GSK-3α/β (Table 5), more than 10 µM; at CDK5/p25 (Table 5), more than 10 µM.
`O=C1N=C(N2CCSCC2)S/C1=C\c1ccc2c(c1)OCCO2` [Compound 5q, (5Z)-5-(2,3-Dihydro-1,4-benzodioxin-6-ylmethylene)-2-(thiomorpholin-4-yl)-1,3-thiazol-4(5H)-one]: the IC50 on Casein kinase 1 (CK1δ/ε) (Table 5) is more than 10 µM; against DYRK1A [2] (Table 5), 0.17 µM; on GSK-3α/β (Table 5), 3.7 µM; against CDK5/p25 (Table 5), more than 10 µM.
Regarding `O=C1N=C(Nc2ccccc2)S/C1=C\c1ccc2c(c1)OCO2` [Compound 5r, (5Z)-5-Benzo[1,3]dioxol-5-ylmethylene-2-phenylamino-1,3-thiazol-4(5H)-one], the IC50 at Casein kinase 1 (CK1δ/ε) (Table 5) was more than 10 µM; at DYRK1A [2] (Table 5), 0.61 µM; at GSK-3α/β (Table 5), more than 10 µM; at CDK5/p25 (Table 5), more than 10 µM.
Take `O=C1N=C(Nc2ccccn2)S/C1=C\c1ccc2c(c1)OCO2` [Compound 5s, (5Z)-5-Benzo[1,3]dioxol-5-ylmethylene-2-(pyridin-2-yl)amino-1,3-thiazol-4(5H)-one]: the IC50 at Casein kinase 1 (CK1δ/ε) (Table 5) was more than 10 µM; on DYRK1A [2] (Table 5) it was 0.033 µM; on GSK-3α/β (Table 5), not above 10 µM; against CDK5/p25 (Table 5), more than 10 µM.
For `O=C1N=C(Nc2ccncc2)S/C1=C\c1ccc2c(c1)OCO2` [Compound 5t, (5Z)-5-Benzo[1,3]dioxol-5-ylmethylene-2-(pyridin-4-yl)amino-1,3-thiazol-4(5H)-one], the IC50 on Casein kinase 1 (CK1δ/ε) (Table 5), against DYRK1A [2] (Table 5), at GSK-3α/β (Table 5) and at CDK5/p25 (Table 5) was more than 10 µM in each case.
For the compound `COc1ccc(NC2=NC(=O)/C(=C/c3ccc4c(c3)OCO4)S2)cc1` [Compound 5u, (5Z)-5-Benzo[1,3]dioxol-5-ylmethylene-2-(4-methoxy-phenylamino)-1,3-thiazol-4(5H)-one], the IC50 at Casein kinase 1 (CK1δ/ε) (Table 5) is more than 10 µM; on DYRK1A [2] (Table 5), 0.9 µM; at GSK-3α/β (Table 5), more than 10 µM; against CDK5/p25 (Table 5) it was more than 10 µM.
For `O=C1N=C(Nc2ccc(Cl)cc2)S/C1=C\c1ccc2c(c1)OCO2` [Compound 5v, (5Z)-5-Benzo[1,3]dioxol-5-ylmethylene-2-(4-chloro-phenylamino)-1,3-thiazol-4(5H)-one], the IC50 at Casein kinase 1 (CK1δ/ε) (Table 5) is more than 10 µM; at DYRK1A [2] (Table 5), 9 µM; on GSK-3α/β (Table 5), more than 10 µM; against CDK5/p25 (Table 5), more than 10 µM.
For the compound `O=C1N=C(Nc2ccccc2)S/C1=C\c1ccc2c(c1)CCO2` [Compound 5w, (5Z)-5-(2,3-Dihydro-benzofuran-5-ylmethylene)-2-phenylamino-1,3-thiazol-4(5H)-one], the IC50 at Casein kinase 1 (CK1δ/ε) (Table 5) is more than 10 µM; against DYRK1A [2] (Table 5) it was 0.12 µM; at GSK-3α/β (Table 5), more than 10 µM; against CDK5/p25 (Table 5) it was more than 10 µM.
On to `O=C1N=C(Nc2ccccc2)S/C1=C\c1ccc2c(c1)OCCO2` [Compound 5x, (5Z)-5-(2,3-Dihydro-benzo[1,4]dioxin-6-ylmethylene)-2-phenylamino-1,3-thiazol-4(5H)-one], for which the IC50 at Casein kinase 1 (CK1δ/ε) (Table 5) is more than 10 µM; on DYRK1A [2] (Table 5), 0.27 µM; at GSK-3α/β (Table 5), more than 10 µM; against CDK5/p25 (Table 5) it was more than 10 µM.
`O=C1NC(Nc2ccccc2)=N/C1=C\c1ccc2c(c1)OCO2` [Leucettine L41]: the IC50 in the data set with DYRK1A [1] (Figure 1) was 0.04 µM.
Take `Nc1ncc(I)c(-c2c[nH]c3ccccc23)n1` [Meridianine 74]: the IC50 in the data set on DYRK1A [1] is 0.066 µM.
For the compound `Nc1nccc(-c2c[nH]c3nccc(O)c23)n1` [Merioline 2], the IC50 in the data set on DYRK1A [1] was 0.029 µM.
Consider `COC(=N)c1nc2ccc3ncnc(Nc4ccc(Br)cc4F)c3c2s1` [VII], for which the IC50 with DYRK1A [1] is […].
As to `CN(Cc1cccs1)c1ncnc2ccc(-c3ccc4c(c3)OCO4)cc12` [VI], in the data set on DYRK1A [1], the IC50 is 0.014 µM.
As to `c1csc(CNc2ncnc3ccc(-c4ccc5c(c4)OCO5)cc23)c1` [V], the IC50 with DYRK1A [1] is 0.062 µM.
Take `COc1cc(C)c(-c2c3c4cc(OC)c(O)cc4oc(=O)c3n3ccc4cc(O)c(OC)cc4c23)cc1O` [XII]: the IC50 in the data set on DYRK1A [1] was 0.042 µM.
Turning to `O=c1oc2ccc(O)cc2c2c1[nH]c1ccc(O)cc12` [XI], in the data set with DYRK1A [1], the IC50 was 0.067 µM.

The values above are taken from article PMC8623179, “Design and Microwave Synthesis of New (5Z) 5-Arylidene-2-thioxo-1,3-thiazolinidin-4-one and (5Z) 2-Amino-5-arylidene-1,3-thiazol-4(5H)-one as New Inhibitors of Protein Kinase DYRK1A” (Pharmaceuticals, 2021).
